Our source for the IC50 and Ki values is patent US20150031674A1, “SERINE/THREONINE KINASE INHIBITORS” (GENENTECH, INC., priority 2013, published 2015).

Assay [1] concerns group I PAKs in EBC1 cells (MEK1 phosphorylation at S298). Put plainly: Cellular PAK IC50 Assay: MEK1 phosphorylation at S298 by HTRF. The format is cell-based. Conditions: Homo sapiens, EBC-1, 2 h treatment, media containing 0.1% FBS, phospho-MEK1 (S298) HTRF. The protocol:
Cellular PAK IC50 Assay Protocol
Group I PAKs (PAK1-3) are activated upon binding to the Rho GTPases, Rac1 and Cdc42. Activated group I PAKs phosphorylate MEK1 at Serine 298 (S298), one of the two sites in the catalytic domain that is important for stable association between Raf and MEK1 and subsequent MAPK activation. The inhibition of group I PAKs in EBC1 cells is assessed by detecting changes in the level of MEK1 phosphorylation at S298 using homogenous time-resolved fluorescence (HTRF). Inhibitory activity was estimated by treating 2×10^4 EBC1 cells for 2 h with PAK inhibitors in media containing 0.1% FBS. Following inhibitor treatment, cells were lysed with 25 μL of 1× cellular kinase lysis buffer (Cisbio) containing 1× cellular kinase blocking reagent (Cisbio). Cellular lysis was carried out at 4° C. for 2 h with constant shaking before lysate (16 μL) was transferred to white 384-well ProxiPlates™ (Perkin Elmer). Anti-total MEK1 antibody labeled with Europium cryptate donor (1 ng/well) (Cell Signaling Technologies catalog number 2352) and anti-phospho MEK1 (S298) antibody labeled with d2 acceptor (Cell Signaling Technologies catalog number 9128) (10 ng/well) were prepared in 1× detection buffer (CisBio) and added to each well of the assay plate and allowed to incubate at RT overnight. The following day the fluorescence emission from each well was measured in EnVision® (Perkin Elmer) at an excitation of 330 nm and dual emission wavelengths of 615 nm and 665 nm. The signal in each well at 665 nm was multiplied by 10,000 and divided by the signal in the same well at 615 nm to obtain a ratio. Ratio values ([665·10,000]÷615) were plotted as a function of the concentration of compound to determine IC50 values.

For assay [2], the target named is human recombinant PAK1-KD protein (Homo sapiens, UniProt Q13153). Put plainly: PAK1-KD (Kinase Domain) IC50 Zlyte Assay (FRET peptide substrate phosphorylation). Conditions: Z'-LYTE, Biological Example 1.
Chain of human recombinant PAK1-KD protein (Q13153 270-521 limits assumed): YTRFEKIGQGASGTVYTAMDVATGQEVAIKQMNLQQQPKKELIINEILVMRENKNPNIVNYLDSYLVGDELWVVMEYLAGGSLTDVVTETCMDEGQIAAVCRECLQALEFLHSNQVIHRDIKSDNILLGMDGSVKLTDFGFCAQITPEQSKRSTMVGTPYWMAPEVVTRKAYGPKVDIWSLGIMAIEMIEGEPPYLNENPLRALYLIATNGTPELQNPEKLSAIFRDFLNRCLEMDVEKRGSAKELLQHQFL

With `CCNc1ncc2cc(-c3ccc(-c4cncc(C)n4)cc3Cl)c(=O)n(C[C@H]3CC[C@H](N)CC3)c2n1` [Example I-5, 8-(((1r,4r)-4-aminocyclohexyl)methyl)-6-(2-chloro-4-(6-methylpyrazin-2-yl)phenyl)-2-(ethylamino)pyrido[2,3-d]pyrimidin-7(8H)-one], in assay [1], the IC50 was determined as 0.147 µM.
Regarding `CNc1ncc2cc(-c3ccc(-c4cncc(C)n4)cc3Cl)c(=O)n(CCCN)c2n1` [Example I-18, 8-(3-Aminopropyl)-6-[2-chloro-4-(6-methylpyrazin-2-yl)phenyl]-2-(methylamino)pyrido[2,3-d]pyrimidin-7-one], the Ki in assay [2] stood at 0.0137 µM. In addition, half-maximal inhibition in assay [1] (IC50) required 0.508 µM.
`CCNc1ncc2cc(-c3ccc(-c4cncc(C)n4)cc3Cl)c(=O)n(CCC3CCCN3)c2n1` (single isomer, unassigned) [Example I-19]: the Ki in assay [2] came out at 0.0268 µM. In assay [1], this compound showed an IC50 of 0.286 µM.
In the case of `CCNc1ncc2cc(-c3ccc(-c4cncc(C)n4)cc3Cl)c(=O)n(CCOC3CNC3)c2n1` [Example I-11, 8-(2-(Azetidin-3-yloxy)ethyl)-6-(2-chloro-4-(6-methylpyrazin-2-yl)phenyl)-2-(ethylamino)pyrido[2,3-d]pyrimidin-7(8H)-one], in assay [2], the Ki amounted to 0.00694 µM. For the same compound, 0.189 µM corresponded to half-maximal inhibition in assay [1] (IC50).
For `CCNc1ncc2cc(-c3ccc(-c4cncc(C)n4)cc3Cl)c(=O)n(CCCCN)c2n1` [Example I-2, 8-(4-Aminobutyl)-6-[2-chloro-4-(6-methylpyrazin-2-yl)phenyl]-2-(ethylamino)pyrido[2,3-d]pyrimidin-7-one], in assay [1], the midpoint of inhibition, the IC50, lay at 0.146 µM.
With `CCNc1ncc2cc(-c3ccc(-c4cncc(C)n4)cc3Cl)c(=O)n(CC(=O)N3CCNCC3)c2n1` [Example I-8, 6-(2-Chloro-4-(6-methylpyrazin-2-yl)phenyl)-2-(ethylamino)-8-(2-oxo-2-(piperazin-1-yl)ethyl)pyrido[2,3-d]pyrimidin-7(8H)-one], the Ki in assay [2] was determined as 0.0309 µM. In assay [1], this compound displayed an IC50 of 1.5 µM.
On to `Cc1cccc(-c2ccc(-c3cc4cnc(NC5COC5)nc4n(CCOCCN)c3=O)c(C)c2)n1` [Example I-108, 8-[2-(2-aminoethoxy)ethyl]-6-[2-methyl-4-(6-methyl-2-pyridyl)phenyl]-2-(oxetan-3-ylamino)pyrido[2,3-d]pyrimidin-7-one], for which the Ki in assay [2] was 0.0025 µM. For the same compound, the midpoint of inhibition in assay [1], the IC50, lay at 0.0835 µM.
As for `Cc1cncc(-c2ccc(-c3cc4cnc(N)nc4n(C[C@H]4CC[C@H](N)CC4)c3=O)c(Cl)c2)n1` [Example I-9, 2-Amino-8-(((1r,4r)-4-aminocyclohexyl)methyl)-6-(2-chloro-4-(6-methylpyrazin-2-yl)phenyl)pyrido[2,3-d]pyrimidin-7(8H)-one], the Ki in assay [2] turned out to be 0.014 µM. Also, the 50% inhibitory concentration (IC50) in assay [1] amounted to 0.358 µM.
The matching figures for `CCNc1ncc2cc(-c3ccc(-c4cncc(C)n4)cc3Cl)c(=O)n(CC(C)OC3CNC3)c2n1` (single isomer, unassigned) [Example I-91, 8-[2-(Azetidin-3-yloxy)propyl]-6-[2-chloro-4-(6-methylpyrazin-2-yl)phenyl]-2-(ethylamino)pyrido[2,3-d]pyrimidin-7-one]: 0.0071 µM and 0.108 µM.
In the case of `CCNc1ncc2cc(-c3ccc(-c4cncc(C)n4)cc3Cl)c(=O)n(CCC3CNCCO3)c2n1` (single isomer, unassigned) [Example I-22], in assay [2], the Ki was 0.0089 µM. Half-maximal inhibition in assay [1] (IC50) was put at 0.0635 µM.
On to `CCNc1ncc2cc(-c3ccc(-c4cncc(C)n4)cc3Cl)c(=O)n(C3COC4(CCNC4)C3)c2n1` (centres unmarked) [Example I-75, 6-[2-Chloro-4-(6-methylpyrazin-2-yl)phenyl]-2-(ethylamino)-8-(1-oxa-7-azaspiro[4.4]nonan-3-yl)pyrido[2,3-d]pyrimidin-7-one], for which, in assay [2], the Ki was found to be 0.0203 µM. In assay [1], this compound displayed an IC50 of 0.197 µM.
The compound `CCNc1ncc2cc(-c3ccc(-c4cncc(C)n4)cc3Cl)c(=O)n(CC3CCNCC3)c2n1` [Example I-6, 6-(2-Chloro-4-(6-methylpyrazin-2-yl)phenyl)-2-(ethylamino)-8-(piperidin-4-ylmethyl)pyrido[2,3-d]pyrimidin-7(8H)-one] registered an IC50 in assay [1] of 0.17 µM.
Take `CCNc1ncc2cc(-c3ccc(-c4cncc(C)n4)cc3Cl)c(=O)n(CCOC3CCNC3)c2n1` (single isomer, unassigned) [Example I-52]: the Ki in assay [2] is 0.0056 µM. This compound also had an IC50 in assay [1] of 0.156 µM.
Compound `CCNc1ncc2cc(-c3ccc(-c4cccc(C)n4)cc3Cl)c(=O)n(C[C@H]3CC[C@H](N)CC3)c2n1` [Example I-15, 8-(((1r,4r)-4-Aminocyclohexyl)methyl)-6-(2-chloro-4-(6-methylpyridin-2-yl)phenyl)-2-(ethylamino)pyrido[2,3-d]pyrimidin-7(8H)-one] had an IC50 in assay [1] of 0.0468 µM.
`CCNc1ncc2cc(-c3ccc(-c4cccc(C)n4)cc3Cl)c(=O)n(CC3CCNCC3)c2n1` [Example I-44, 6-(2-Chloro-4-(6-methylpyridin-2-yl)phenyl)-2-(ethylamino)-8-(piperidin-4-ylmethyl)pyrido[2,3-d]pyrimidin-7(8H)-one]: the Ki in assay [2] was found to be 0.0046 µM. In addition, half-maximal inhibition in assay [1] (IC50) required 0.0723 µM.
For `CCNc1ncc2cc(-c3ccc(-c4cncc(C)n4)cc3Cl)c(=O)n(CCOC3CCNC3)c2n1` (centres unmarked) [Example I-13, 6-(2-Chloro-4-(6-methylpyrazin-2-yl)phenyl)-2-(ethylamino)-8-(2-(pyrrolidin-3-yloxy)ethyl)pyrido[2,3-d]pyrimidin-7(8H)-one], the Ki in assay [2] was 0.0058 µM. In assay [1], the IC50 is 0.18 µM.
For `Cc1cccc(-c2ccc(-c3cc4cnc(N)nc4n(CCC4CNCCO4)c3=O)c(Cl)c2)n1` (racemic) [Example I-127, 2-Amino-6-[2-chloro-4-(6-methyl-2-pyridyl)phenyl]-8-(2-morpholin-2-ylethyl)pyrido[2,3-d]pyrimidin-7-one], the Ki in assay [2] worked out at 0.0038 µM. The concentration for half-maximal inhibition (IC50) in assay [1] is 0.0382 µM.
In the case of `CCNc1ncc2cc(-c3ccc(-c4ncccc4C)cc3Cl)c(=O)n(C[C@H]3CC[C@H](N)CC3)c2n1` [Example I-16, 8-(((1r,4r)-4-Aminocyclohexyl)methyl)-6-(2-chloro-4-(3-methylpyridin-2-yl)phenyl)-2-(ethylamino)pyrido[2,3-d]pyrimidin-7(8H)-one], in assay [2], the Ki worked out at 0.0072 µM. In assay [1], this compound came in with an IC50 of 0.0756 µM.
As for `CCNc1ncc2cc(-c3ccc(-c4cncc(C)n4)cc3Cl)c(=O)n(CCOCCN)c2n1` [Example I-12, 8-(2-(2-Aminoethoxy)ethyl)-6-(2-chloro-4-(6-methylpyrazin-2-yl)phenyl)-2-(ethylamino)pyrido[2,3-d]pyrimidin-7(8H)-one], the Ki in assay [2] is 0.0043 µM. The compound also returned an IC50 in assay [1] of 0.131 µM.
`CCNc1ncc2cc(-c3ccc(-c4cccc(C)n4)cc3C)c(=O)n(CCOC3CNC3)c2n1` [Example I-31, 8-(2-(azetidin-3-yloxy)ethyl)-2-(ethylamino)-6-(2-methyl-4-(6-methylpyridin-2-yl)phenyl)pyrido[2,3-d]pyrimidin-7(8H)-one]: the Ki in assay [2] is 0.0046 µM. This compound returned a half-maximal inhibitory concentration (IC50) in assay [1] of 0.127 µM.
In the case of `CCNc1ncc2cc(-c3ccc(-c4cncc(C)n4)cc3Cl)c(=O)n(C[C@H]3CC[C@H](N(C)C)CC3)c2n1` [Example I-10, 6-(2-Chloro-4-(6-methylpyrazin-2-yl)phenyl)-8-(((1r,4r)-4-(dimethylamino)cyclohexyl)methyl)-2-(ethylamino)pyrido[2,3-d]pyrimidin-7(8H)-one], in assay [2], the Ki was found to be 0.0213 µM. In addition, the IC50 in assay [1] stood at 0.274 µM.
